Assay results published in ChEMBL document CHEMBL1154316, “Structure-activity relationship study of EphB3 receptor tyrosine kinase inhibitors” (Bioorg Med Chem Lett, 2009).

Columns and labels:
[1] = Half life in mouse liver microsomes at 3 uM measured up to 60 mins; format: ADME, Microsome; details: for half-life at 3 µM: liver microsomes
[2] = Intrinsic clearance in mouse liver microsomes assessed as per mg of protein at 3 uM measured up to 60 mins; format: ADME, Microsome; details: for microsomal CLint at 3 µM: liver microsomes

SMILES	half-life at 3 µM [1]	microsomal CLint at 3 µM [2]	t1/2 ([1]; microsomes, 1 h, 3 µM)	CL ([2]; microsomes, 1 h, 3 µM)
O=C(Nc1ccccc1Cl)c1cnn2ccc(-c3ccccc3)cc12	27 min	51 µL/min/mg	–	–
O=C(Nc1ccccc1Cl)c1cnc2ccc(-c3ccccc3)cn12	53 min	26 µL/min/mg	–	–
O=C(Nc1ccccc1Cl)c1cnn2ccccc12	–	–	5.3 min	261 µL/min/mg
O=C(Nc1ccccc1Cl)c1cnc2ccccn12	3.8 min	361 µL/min/mg	–	–

Continued, values first:

half-life at 3 µM [1]	microsomal CLint at 3 µM [2]	t1/2 ([1]; microsomes, 1 h, 3 µM)	CL ([2]; microsomes, 1 h, 3 µM)	SMILES
348 min	–	–	–	O=C(Nc1ccccc1Cl)c1cnc2ccc(C3CCNCC3)cn12.O=C(O)C(=O)O
20 min	71 µL/min/mg	–	–	O=C(Nc1ccccc1Cl)c1cnc2ccc(N3CCCCC3)cn12
8.3 min	167 µL/min/mg	–	–	O=C(Nc1ccccc1Cl)c1cnn2ccc(N3CCCCC3)cc12
